The values that follow come from patent US10653688B2, “6-(6-membered heteroaryl and aryl)isoquinolin-3-yl carboxamides and preparation and use thereof” (Samumed, LLC, priority 2017, dated 2020).

Read-outs that look alike come from different tables or passages of the source.

Assay [1] deals with SW480 colon carcinoma cells. The experiment in a line: Cell viability assay (CellTiter-Glo). The format is cell-based, human. The settings on record: Homo sapiens; for EC50: 96 h, four days, CellTiter-Glo; for inhibition at 10 µM: read-out: percent inhibition at 10 μM (given for EC50 >10 μM), 10 μM. On the technique in general: ATP-based viability assays read luminescence as a measure of living cells.

For assay [2], the system named is Wnt activity (SW480 colon carcinoma cells stably expressing the Sp5-Luc reporter gene). The experiment in a line: Wnt activity screening assay (Sp5-Luc reporter gene assay). It is filed as cell-based, human. The settings on record: Homo sapiens; for EC50: 36 to 48 hours; for inhibition at 10 µM: read-out: percent inhibition at 10 μM (given for EC50 >10 μM), 10 μM. The gist of the method:
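EC50 values come from a variable-slope four-parameter fit of luminescence normalized to DMSO-only wells. The read-out follows 36–48 h incubation at 37 °C, 5% CO2, in DMEM containing 1% fetal bovine serum. Cells are hygromycin-selected SW480 stably expressing firefly luciferase under a Wnt-responsive Sp5 promoter (eight TCF/LEF sites).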
(Reporter assays use an easily measured gene product as a stand-in for the process of interest.)

Assay [3] has as its target recombinant DYRK1A kinase (Homo sapiens (Human), UniProt Q13627). The experiment in a line: DYRK1A kinase assay (Ser/Thr 18 peptide Z-lyte, FRET).
In assay [4] the test system is LL29 cells (primary human fibroblasts derived from IPF patients), α-smooth muscle actin. The experiment in a line: Inhibition of fibrotic process: TGF-β1-treated primary human fibroblasts, αSMA staining.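 As to all read-outs here: controls were TGF-β1-stimulated wells with DMSO vehicle as the positive reference and cells given DMSO alone as the negative reference.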 It is filed as cell-based. The settings on record: Homo sapiens, Fibroblast; for EC50: 96 h, TGF-β1 20 ng/mL, 4 days, % cells positive for αSMA.
Assay [5] deals with IL-6 in human peripheral blood mononuclear cells (huPBMCs). The experiment in a line: IL-6 inhibition in LPS-stimulated human peripheral blood mononuclear cells (HTRF). The format is cell-based. The settings on record: Homo sapiens, PBMC; for EC50: LPS 50 ng/mL, 22 hours, IL-6 HTRF; for inhibition at 10 µM: read-out: percent inhibition at 10 μM (given for EC50 >10 μM), LPS, IL-6, 10 μM. The gist of the method:
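Compound-treated huPBMCs (1×10e6 cells/mL, 1% FBS-RPMI) were stimulated after 2 h with LPS (50 ng/mL) for another 22 h at 37° C. An anti-IL-6 HTRF pair reported IL-6 as the 665/620 nm ratio; activity relative to DMSO, EC50 by 4-parameter Levenberg-Marquardt fitting, duplicates.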
On the technique in general: In TR-FRET formats the signal depends on donor and acceptor labels being close together.

In a further assay the target is recombinant GSK3β kinase (Homo sapiens (Human), UniProt P49841). The experiment in a line: GSK3β kinase assay (Ser/Thr 09 peptide Z-lyte, FRET).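 Also: FRET read-out as coumarin over fluorescein emission ratio, compounds incubated one hour at room temperature, IC50 from dose-response curve fit.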 It is filed as biochemical.
The subject of assay [6] is Tau phosphorylation at Ser396 (pSer396) in SH-SY5Y cells. The experiment in a line: Tau phosphorylation at Ser396 (pSer396) cell assay, ELISA/western blot. It is filed as cell-based, human. Here is the method: SH-SY5Y cells (human neuroblastoma) were cultured in DMEM/F-12 medium supplemented with 15% FBS, Non-essential Amino Acid and Penicillin/Streptomycin. Two days before treatment, cells were seeded onto 96 well plates at 5×10^4 cells/well.
The above synthesized compounds were screened using the cell assay procedure to assess decrease Tau phosphorylation at Ser396 (pSer396) described below.
DMSO-resuspended compounds were dispensed to 8 wells as a serial titration from 10 μM to 4.6 nM final in medium and cells were exposed overnight (16-18 h) in a humidified incubator at 36.6c before harvest.
Cells were lysed with RIPA buffer complemented with phosphatase and protease inhibitors then lysates were spun down at 12,000 g for 10 min to remove any cellular debris. Lysates are then either directly tested for pSer396 by ELISA (Life Technology, Kit KHB7031) or loaded on NuPage Bis-Tris gels for western blot analysis. Colorimetric detection of ELISA signal is performed by Cytation3 plate reader (Biotek) and the chemiluminescence signal for HRP-linked antibodies used in western blotting is detected using a Carestream Image Station. The same pSer396 antibody is used for detection of pTau in both assays.
Blot densitometry for pSer396 and β-actin were analyzed using ImageJ (NIH) and pSer396 Tau ELISA signal was used to plot, draw the curve fitting, and determine each compounds EC50 in Prism (GraphPad).

Where [7] appears, read: DYRK1A kinase, head says EC50, method says IC50, ATP 30 μM.
Setting [8] is: GSK3β kinase, head says EC50, method says IC50, ATP 46 μM.
The mark [9] stands for this setting: Homo sapiens, SH-SY5Y cells, overnight (16-18 h), read-out: pSer396 Tau EC50.

Sequence of recombinant GSK3β kinase (P49841 whole entry): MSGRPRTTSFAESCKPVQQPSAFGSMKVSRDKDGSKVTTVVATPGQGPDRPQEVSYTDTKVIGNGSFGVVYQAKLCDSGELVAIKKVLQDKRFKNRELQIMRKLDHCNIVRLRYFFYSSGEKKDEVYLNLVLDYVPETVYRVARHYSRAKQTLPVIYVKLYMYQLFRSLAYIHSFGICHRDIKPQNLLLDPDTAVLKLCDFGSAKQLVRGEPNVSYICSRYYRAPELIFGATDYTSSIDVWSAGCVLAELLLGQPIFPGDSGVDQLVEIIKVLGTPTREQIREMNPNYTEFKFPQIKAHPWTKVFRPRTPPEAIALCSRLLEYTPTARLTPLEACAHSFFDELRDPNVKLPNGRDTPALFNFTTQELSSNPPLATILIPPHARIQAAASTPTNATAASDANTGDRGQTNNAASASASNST

Broadly, the EC50 is the midpoint of the concentration-response curve. Usually inhibition stands for the percentage by which the read-out fell short of the control. As to `CN1CCC(C(=O)Nc2cc3cc(-c4ccccn4)ccc3cn2)CC1` [Compound 3, 1-Methyl-N-(6-(pyridin-2-yl)isoquinolin-3-yl)piperidine-4-carboxamide], the EC50 is over 10000 nM in assay [1]; over 10000 nM in assay [2]; 260 nM in assay [3] (setting [7]); 6010 nM in assay [4]; over 10000 nM in assay [5]; 5310 nM at recombinant GSK3β kinase (setting [8]). Moreover, the EC50 in assay [6] (setting [9]) is over 10000 nM. The inhibition at 10 µM in assay [1] turned out to be 50%; in assay [2] it was 13.7%; in assay [5], 5.1%.

Consider `CN1CCN(CC(=O)Nc2cc3cc(-c4cncc(C(F)(F)F)c4)ccc3cn2)CC1` [Compound 29, 2-(4-Methylpiperazin-1-yl)-N-(6-(5-(trifluoromethyl)pyridin-3-yl)isoquinolin-3-yl)acetamide], for which the EC50 is 4000 nM in assay [1]; 9840 nM in assay [2]; 608 nM in assay [3] (setting [7]); 4020 nM in assay [4]; over 10000 nM in assay [5]; over 10000 nM on recombinant GSK3β kinase (setting [8]). For the same molecule, the EC50 in assay [6] (setting [9]) is over 10000 nM. The inhibition at 10 µM in assay [5] is 4.3%.

For the molecule `CN1CCC(C(=O)Nc2cc3cc(-c4cncc(CO)c4)ccc3cn2)CC1` [Compound 31, N-(6-(5-(Hydroxymethyl)pyridin-3-yl)isoquinolin-3-yl)-1-methylpiperidine-4-carboxamide], the EC50 came to 859 nM in assay [1]; 862 nM in assay [2]; 3 nM in assay [3]; 450 nM in assay [4]; 8940 nM in assay [5]; 698 nM at recombinant GSK3β kinase. Besides, the EC50 in assay [6] (setting [9]) came to 9100 nM.

As to `CC(=O)Nc1cncc(-c2ccc3cnc(NC(=O)C4CCN(C)CC4)cc3c2)c1` [Compound 47, N-(6-(5-Acetamidopyridin-3-yl)isoquinolin-3-yl)-1-methylpiperidine-4-carboxamide], the EC50 in assay [1] amounted to 6980 nM; in assay [2], 1260 nM; in assay [3] (setting [7]), 2 nM; in assay [4], 556 nM; in assay [5] it was 5990 nM; at recombinant GSK3β kinase (setting [8]), 487 nM. In addition, the EC50 in assay [6] (setting [9]) was over 10000 nM.

In the case of `O=C(Nc1cc2cc(-c3cncc(OC4CCNCC4)c3)ccc2cn1)C1CC1` [Compound 55, N-(6-(5-(Piperidin-4-yloxy)pyridin-3-yl)isoquinolin-3-yl) cyclopropanecarboxamide], the EC50 in assay [1] came out at 1190 nM; in assay [2], 698 nM; in assay [3] (setting [7]), 5 nM; in assay [4] it was 2060 nM; in assay [5] it was 3230 nM; at recombinant GSK3β kinase (setting [8]), 1030 nM. Moreover, the EC50 in assay [6] (setting [9]) was determined as 1100 nM.

As for `CNC(=O)c1cncc(-c2ccc3cnc(NC(=O)C4CCN(C)CC4)cc3c2)c1` [Compound 58, N-Methyl-5-(3-(1-methylpiperidine-4-carboxamido)isoquinolin-6-yl) nicotinamide], the EC50 in assay [1] was over 10000 nM; in assay [2], over 10000 nM; in assay [3] (setting [7]) it was 9 nM; in assay [4], over 10000 nM; in assay [5] it was 9660 nM; at recombinant GSK3β kinase (setting [8]) it was 1970 nM. For the same molecule, the half-maximal effective concentration (EC50) in assay [6] (setting [9]) was over 10000 nM. In addition, the inhibition at 10 µM in assay [1] amounted to 30.9%; in assay [2], 43.7%; in assay [4] (read-out: percent inhibition at 10 μM (given for EC50 >10 μM), TGF-β1, αSMA, 10 μM), 44.6%.

In the case of `Cc1ncc(-c2ccc3cnc(NC(=O)C4CCN(C)CC4)cc3c2)cn1` [Compound 63, 1-Methyl-N-(6-(2-methylpyrimidin-5-yl)isoquinolin-3-yl)piperidine-4-carboxamide], the half-maximal effective concentration (EC50) in assay [1] was over 10000 nM; in assay [2], over 10000 nM; in assay [3] (setting [7]), 221 nM; in assay [4], 2390 nM; in assay [5], over 10000 nM; at recombinant GSK3β kinase (setting [8]) it was over 10000 nM. For the same molecule, in assay [6] (setting [9]), the concentration for a half-maximal effect (EC50) was over 10000 nM. The values for the inhibition at 10 µM in assay [1], in assay [2] and in assay [5] were 7.4%, 9.9% and 7.9%, respectively.

As to `CCN1/C(=C/C(C)=O)Sc2ccc(O)cc21` [Indy, reference compound], the EC50 in assay [6] (control DYRK1A inhibitors, printed '>10 M' (μ apparently lost), read-out: EC50 in the Tau assay) is over 10000 nM.
